Measured values as given in patent US8802597B2, “Herbicidal pyrimidines” (E I du Pont de Nemours and Company, priority 2003, dated 2014).
Like-named read-outs stand apart in the source and are kept apart here.

Experiments:
Format in all cases: in vivo
[1] = tested on: bermudagrass (Cynodon dactylon); test: Test C pre/postemergence; settings: Cynodon dactylon; for pest or weed control at 62 g/ha: 62 g ai/ha; for pest or weed control at 125 g/ha: 125 g ai/ha; for pest or weed control at 125 g/ha / pest or weed control at 250 g/ha / pest or weed control at 500 g/ha: scale 0 to 100; for pest or weed control at 250 g/ha: 250 g ai/ha; for pest or weed control at 500 g/ha: 500 g ai/ha
Method in brief: (§1)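 Greenhouse pot test: seeds treated preemergence, or plants at 2–18 cm (1- to 4-leaf stage) treated postemergence, with compound in non-phytotoxic solvent plus surfactant. Visual rating versus untreated controls after 12–14 days, scale 0 (no effect) to 100 (complete control); dash means not tested.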

[2] = tested on: common ragweed (Ambrosia elatior); test: Test C pre/postemergence; settings: Ambrosia artemisiifolia; for pest or weed control at 62 g/ha: 62 g ai/ha; for pest or weed control at 125 g/ha: 125 g ai/ha; for pest or weed control at 250 g/ha: 250 g ai/ha; for pest or weed control at 500 g/ha: 500 g ai/ha
Method in brief: as §1

[3] = tested on: goosegrass (Eleusine indica); test: Test C pre/postemergence; settings: Eleusine indica; for pest or weed control at 62 g/ha: 62 g ai/ha; for pest or weed control at 125 g/ha: 125 g ai/ha; for pest or weed control at 250 g/ha: 250 g ai/ha; for pest or weed control at 500 g/ha: 500 g ai/ha
Method in brief: as §1

[4] = tested on: pigweed (Amaranthus retroflexus); test: Test C pre/postemergence; settings: Amaranthus retroflexus; for pest or weed control at 62 g/ha: 62 g ai/ha; for pest or weed control at 125 g/ha: 125 g ai/ha; for pest or weed control at 250 g/ha: 250 g ai/ha; for pest or weed control at 500 g/ha: 500 g ai/ha
Method in brief: as §1

[5] = tested on: velvetleaf (Abutilon theophrasti); test: Test C pre/postemergence; settings: Abutilon theophrasti; for pest or weed control at 62 g/ha: 62 g ai/ha; for pest or weed control at 125 g/ha: 125 g ai/ha; for pest or weed control at 250 g/ha: 250 g ai/ha; for pest or weed control at 500 g/ha: 500 g ai/ha
Method in brief: as §1

[6] = tested on: woolly cupgrass (Eriochloa villosa); test: Test C pre/postemergence; settings: Eriochloa villosa; for pest or weed control at 62 g/ha: 62 g ai/ha; for pest or weed control at 125 g/ha: 125 g ai/ha; for pest or weed control at 250 g/ha: 250 g ai/ha; for pest or weed control at 500 g/ha: 500 g ai/ha
Method in brief: as §1

[7] = tested on: yellow nutsedge (Cyperus esculentus); test: Test C pre/postemergence; settings: Cyperus; for pest or weed control at 62 g/ha: 62 g ai/ha; for pest or weed control at 125 g/ha: 125 g ai/ha; for pest or weed control at 250 g/ha: 250 g ai/ha; for pest or weed control at 500 g/ha: 500 g ai/ha
Method in brief: as §1

[8] = tested on: chickweed (Stellaria media); test: Test C postemergence; settings: Stellaria media, post-emergence
Method in brief: as §1

[9] = post-emergence, Postemergence, read-out: Plant response rating, Bermudagrass
[10] = pre-emergence, Preemergence, read-out: Plant response rating, Bermudagrass
[11] = post-emergence, Postemergence, scale 0 to 100 (0 no effect, 100 complete control), read-out: Ragweed plant response rating
[12] = post-emergence, Postemergence, scale 0 to 100, read-out: Plant response rating, Ragweed
[13] = pre-emergence, Preemergence, scale 0 to 100, read-out: Plant response rating, Ragweed
[14] = post-emergence, Postemergence, scale 0 to 100 (0 no effect, 100 complete control), read-out: Goosegrass plant response rating
[15] = post-emergence, Postemergence, scale 0 to 100, read-out: Plant response rating, Goosegrass
[16] = pre-emergence, Preemergence, scale 0 to 100, read-out: Plant response rating, Goosegrass
[17] = post-emergence, Postemergence, scale 0 to 100 (0 no effect, 100 complete control), read-out: Pigweed plant response rating
[18] = post-emergence, Postemergence, scale 0 to 100, read-out: Plant response rating, Pigweed
[19] = pre-emergence, Preemergence, scale 0 to 100, read-out: Plant response rating, Pigweed
[20] = post-emergence, Postemergence, scale 0 to 100 (0 no effect, 100 complete control), read-out: Velvetleaf plant response rating
[21] = post-emergence, Postemergence, scale 0 to 100, read-out: Plant response rating, Velvetleaf
[22] = pre-emergence, Preemergence, scale 0 to 100, read-out: Plant response rating, Velvetleaf
[23] = post-emergence, Postemergence, scale 0 to 100 (0 no effect, 100 complete control), read-out: Cupgrass, Woolly plant response rating
[24] = post-emergence, Postemergence, scale 0 to 100, read-out: Plant response rating, Cupgrass, Woolly
[25] = pre-emergence, Preemergence, scale 0 to 100, read-out: Plant response rating, Cupgrass, Woolly
[26] = post-emergence, Postemergence, scale 0 to 100 (0 no effect, 100 complete control), read-out: Nutsedge, Yellow plant response rating
[27] = post-emergence, Postemergence, scale 0 to 100, read-out: Plant response rating, Nutsedge, Yellow
[28] = pre-emergence, Preemergence, scale 0 to 100, read-out: Plant response rating, Nutsedge, Yellow

**Q.** Which results are given for CNc1nc(C2CC2)nc(C(=O)OC)c1Br [Compound 5]?
**A.** pest or weed control at 62 g/ha ([1]; post-emergence, Postemergence, scale 0 to 100 (0 no effect, 100 complete control), read-out: Bermudagrass plant response rating): 5%; pest or weed control at 125 g/ha [1, 9]: 50%; pest or weed control at 250 g/ha [1, 9]: 70%; pest or weed control at 500 g/ha [1, 9]: 80%; pest or weed control at 62 g/ha ([1]; pre-emergence, Preemergence, scale 0 to 100, 0 no effect, 100 complete control, read-out: Plant response rating, Bermudagrass): 0%; pest or weed control at 125 g/ha [1, 10]: 0%; pest or weed control at 250 g/ha [1, 10]: 30%; pest or weed control at 500 g/ha [1, 10]: 70%; pest or weed control at 62 g/ha [2, 11]: 90%; pest or weed control at 125 g/ha [2, 11]: 95%; pest or weed control at 250 g/ha [2, 12]: 95%; pest or weed control at 500 g/ha [2, 12]: 100%; pest or weed control at 62 g/ha ([2]; pre-emergence, Preemergence, scale 0 to 100, 0 no effect, 100 complete control, read-out: Plant response rating, Ragweed): 85%; pest or weed control at 125 g/ha [2, 13]: 90%; pest or weed control at 250 g/ha [2, 13]: 100%; pest or weed control at 500 g/ha [2, 13]: 100%; pest or weed control at 62 g/ha [3, 14]: 0%; pest or weed control at 125 g/ha [3, 14]: 5%; pest or weed control at 250 g/ha [3, 15]: 40%; pest or weed control at 500 g/ha [3, 15]: 50%; pest or weed control at 62 g/ha ([3]; pre-emergence, Preemergence, scale 0 to 100, 0 no effect, 100 complete control, read-out: Plant response rating, Goosegrass): 0%; pest or weed control at 125 g/ha [3, 16]: 0%; pest or weed control at 250 g/ha [3, 16]: 0%; pest or weed control at 500 g/ha [3, 16]: 40%; pest or weed control at 62 g/ha [4, 17]: 85%; pest or weed control at 125 g/ha [4, 17]: 90%; pest or weed control at 250 g/ha [4, 18]: 90%; pest or weed control at 500 g/ha [4, 18]: 100%; pest or weed control at 62 g/ha ([4]; pre-emergence, Preemergence, scale 0 to 100, 0 no effect, 100 complete control, read-out: Plant response rating, Pigweed): 60%; pest or weed control at 125 g/ha [4, 19]: 90%; pest or weed control at 250 g/ha [4, 19]: 100%; pest or weed control at 500 g/ha [4, 19]: 100%; pest or weed control at 62 g/ha [5, 20]: 55%; pest or weed control at 125 g/ha [5, 20]: 90%; pest or weed control at 250 g/ha [5, 21]: 90%; pest or weed control at 500 g/ha [5, 21]: 95%; pest or weed control at 62 g/ha ([5]; pre-emergence, Preemergence, scale 0 to 100, 0 no effect, 100 complete control, read-out: Plant response rating, Velvetleaf): 85%; pest or weed control at 125 g/ha [5, 22]: 85%; pest or weed control at 250 g/ha [5, 22]: 90%; pest or weed control at 500 g/ha [5, 22]: 90%; pest or weed control at 62 g/ha [6, 23]: 5%; pest or weed control at 125 g/ha [6, 23]: 50%; pest or weed control at 250 g/ha [6, 24]: 50%; pest or weed control at 500 g/ha [6, 24]: 70%; pest or weed control at 62 g/ha ([6]; pre-emergence, Preemergence, scale 0 to 100, 0 no effect, 100 complete control, read-out: Plant response rating, Cupgrass, Woolly): 0%; pest or weed control at 125 g/ha [6, 25]: 0%; pest or weed control at 250 g/ha [6, 25]: 0%; pest or weed control at 500 g/ha [6, 25]: 0%; pest or weed control at 62 g/ha [7, 26]: 0%; pest or weed control at 125 g/ha [7, 26]: 0%; pest or weed control at 250 g/ha [7, 27]: 0%; pest or weed control at 500 g/ha [7, 27]: 0%; pest or weed control at 62 g/ha ([7]; pre-emergence, Preemergence, scale 0 to 100, 0 no effect, 100 complete control, read-out: Plant response rating, Nutsedge, Yellow): 0%; pest or weed control at 125 g/ha [7, 28]: 0%; pest or weed control at 250 g/ha [7, 28]: 0%; pest or weed control at 500 g/ha [7, 28]: 0%; pest or weed control at 62 g/ha ([8]; 62 g ai/ha, scale 0 to 100 (0 no effect, 100 complete control), read-out: Chickweed plant response rating): 0%; pest or weed control at 125 g/ha ([8]; 125 g ai/ha, scale 0 to 100, read-out: Plant response rating, Chickweed): 10%; pest or weed control at 250 g/ha ([8]; 250 g ai/ha, scale 0 to 100, read-out: Plant response rating, Chickweed): 20%
